Values after ≈ are worked out from the molar mass of the structure shown. Like-named read-outs stand apart in the source and are kept apart here.
Tests used:
[1] = test system: MU 50 multi-resistant bacteria; assay: Experiment 7: growth of MU50 after pulsed 400 nm photo-activation of antibiotics; format: cell-based, Staphylococcus aureus; settings: antibiotic concentration per the 11th table
Protocol: (§1) In Experiments 7 to 9 the effect of some exemplary photo-activated antibiotics is tested on two different multi resistant bacterial strains:
In Experiment 7 MU 50 multi-resistant bacteria as described above for Experiments 1 to 3 were tested.
(§2) G→Pulse ON 5 ms energy 0.05 J, OFF 45 ms during 10 minutes
(§3) The following experimental procedure are the same for experiments 7, 8 and 9: The bacterial cells were grown in Mueller Hinton Broth in the presence of an antibiotic at a concentration according to the table below until they reached turbidity of 1 according to the McFarland Standard (=3×10^8 bacteria/ml):
(§4) For each antibiotic two patterns of pulsed exposure for photo-activation were applied and a control without exposure to radiation. For example in experiment 7 and 8, pulse ON 10 ms energy 0.1 J, OFF 90 ms during 10 minutes and pulse ON 5 ms energy 0.05 J, OFF 45 ms i.e. in both treatments a 10% ON and a 90% OFF pattern and both for a duration of 10 minutes.
(§5) Incubation for 2 to up 36 hours at 37° C. until time=t2
(§6) At time=t2 one of the antibiotics is added to obtain the same concentration of antibiotic as during the original growth phase prior to time t1=0 as listed in the table above.
(§7) Incubation for further 2 to 4 hours at 37° C. in the presence of antibiotic until time=t3.
(§8) The absorbance value correlates to the colloidal effect and the number of bacteria in the sample.
(§9) These tables below list for each bacterial sample the difference in absorption values representing the difference in the number of bacteria present in each sample by subtracting the absorption values at time t4, which is the last measurement of the growth curve presented in FIGS. 3 to 5 from the last absorption value before the treatment with light at time t3. The values of A and G represent the effect of the treatment of the bacterial samples with two different light patterns for activation of the antibiotic as described above. The values of D correspond to the control samples without photo-activation of the antibiotic: […]

[2] = test system: PA01 Pseudamonas aeruginosa MultiR genetically modified bacteria; assay: Experiment 8: growth of PA01 after pulsed 400 nm photo-activation of antibiotics; format: cell-based; settings: antibiotic concentration per the 12th table
Protocol: as §1
In Experiment 8 and 9 PA01 Pseudamonas aeruginosa MultiR genetically modified bacteria were tested. This PA01 strain is genetically modified with a quinolone pump and conferring resistance to antibiotics of the quinolone group of antibiotics.
as §2, §3, §4, §5, §6, §7, §8, §9

Acinetobacter [3] = assay: Experiment 12: replication on antibiotic agar after pulsed 400 nm irradiation; format: cell-based; settings: 24 hours incubation; for C: Acinetobacter (no irradiation), replication: antibiotic 10 mg/l in MH agar; for D Acinetobacter (irradiation), replication: antibiotic 10 mg/l, 400 nm LED pulses 0.02 ms, 1 kHz, 10 minutes
Protocol: (§10) 15′000′000 multi-resistant bacteriae (0.050 ml of a McFarland of 1) were put on 40 mm diameter petri dishes. The petri dishes comprised MH agar with or without antibiotic.
(§11) […]. The LED power during 0.02 ms was measured to be 0.63 W on a Thorlabs power sensor with a surface area of 2.2×2.2 mm representing a power of 13 mW/cm^2.

Pseudomonas aeruginosa = assay: as above; format: cell-based; settings: 24 hours incubation; for A: Pseudomonas aeruginosa (no irradiation), replication: antibiotic 10 mg/l in MH agar; for B: Pseudomonas aeruginosa (irradiation), replication: antibiotic 10 mg/l, 400 nm LED pulses 0.02 ms, 1 kHz, 10 minutes
Protocol: as §10, §11

[4] = test system: Staphylococcus aureus MU500; assay: as above; format: cell-based; settings: 24 hours incubation; for E: Staphylococcus aureus MU500 (no irradiation), replication: antibiotic 10 mg/l in MH agar; for F: Staphylococcus aureus MU500 (irradiation), replication: antibiotic 10 mg/l, 400 nm LED pulses 0.02 ms, 1 kHz, 10 minutes
Protocol: as §10
(§12) The LED power during 0.02 ms was measured to be 0.63 W on a Thorlabs power sensor with a surface area of 2.2×2.2 mm representing a power of 13 mW/cm^2.

Acinetobacter [5] = format: cell-based
Protocol: as §10, §12
(§13) After the irradiation treatment according to experiment 12, remaining bacteria were allowed to proliferate and then were subject to the treatment according to experiment 12 again in order to test for possible new resistances to the treatment. The values in the following table are designated as in experiment 12: […]

[6] = test system: Staphylococcus aureus MU500; format: cell-based
Protocol: as §10, §12, §13

[7] = test system: MU50 multidrug-resistant Staphylococcus aureus strain (MRSA); assay: Minimum inhibitory concentration (MIC) on MU50; format: cell-based
Source text: For some of the experimental tests MU50 bacteria were used. MU50 is a multidrug-resistant Staphylococcus aureus strain (MRSA). MRSA are bacteria which have naturally evolved under antibiotic selection pressure and which are known to be resistant to antibiotics including penicillins (methicillin, dicloxacillin, nafcillin, oxacillin, etc.) and cephalosporins. MU50 is additionally resistant to macrolides, quinolones and aminoglycosides.
The minimum inhibitory concentration (MIC), which inhibits the visible growth of a microorganism after an overnight incubation was determined for the following antibiotics: […]

[8] = test system: multi-drug resistant MU 50 bacterial cells; assay: Experiment 1: killing of MU50 by antibiotic with/without riboflavin and UVA 365 nm (CFU); format: cell-based, Staphylococcus aureus; settings: ofloxacin 240 μg/ml
Protocol: The first experiment compares the effect of two antibiotics incubated with multi-drug resistant MU 50 bacterial cells accompanied by exposure to UVA light at 365 nm. […] Furthermore, the antibiotics were administered in the presence and absence of riboflavin, to test the free radical effect of riboflavin.
After addition of the antibiotic and optionally riboflavin to the bacterial samples they were incubated for 1 or for 30 minutes in Experiment 1A and for 30 minutes in Experiment 1B prior to the UV-A exposure at 365 nm with 9 mW/cm^2 for 10 minutes.
In Experiment 1B the added antibiotic was tobramycin at a concentration of 135 μg/ml.

[9] = A: 400 nm LED pulse ON 10 ms energy 0.1 J, OFF 90 ms during 10 minutes, approx. ten hours after t3
[10] = G: 400 nm LED pulse ON 5 ms energy 0.05 J, OFF 45 ms during 10 minutes
[11] = A: 400 nm LED pulse ON 10 ms energy 0.1 J, OFF 90 ms during 10 minutes
[12] = remaining bacteria of experiment 12 proliferated and treated again, irradiation
[13] = remaining bacteria of experiment 12 proliferated and treated again, no irradiation
[14] = second treatment according to experiment 12
[15] = incubation 1 min, no riboflavin, no UVA
[16] = incubation 1 min, no riboflavin, with UVA 365 nm 9 mW/cm^2 10 min
[17] = incubation 1 min, with riboflavin, no UVA
[18] = incubation 1 min, with riboflavin, with UVA 365 nm 9 mW/cm^2 10 min
[19] = incubation 30 min, no riboflavin, no UVA
[20] = incubation 30 min, no riboflavin, with UVA 365 nm 9 mW/cm^2 10 min
[21] = incubation 30 min, with riboflavin, no UVA
[22] = incubation 30 min, with riboflavin, with UVA 365 nm 9 mW/cm^2 10 min

C[C@H]1c2cccc(O)c2C(=O)C2=C(O)[C@]3(O)C(=O)C(C(N)=O)=C(O)[C@@H](N(C)C)[C@@H]3[C@@H](O)[C@@H]21 [Doxycycline]
difference in absorption values (595-600 nm) between t4 and t3 [1, 9]: −0.083
difference in absorption values (595-600 nm) between t4 and t3 ([1]; D: control no pulse): 0.0072
difference in absorption values (595-600 nm) between t4 and t3 [1, 10]: −0.0429
difference in absorption values (595-600 nm) between t4 and t3 [2, 11]: −0.0365
difference in absorption values (595-600 nm) between t4 and t3 ([2]; D: control no pulse): 0.0735
difference in absorption values (595-600 nm) between t4 and t3 [2, 10]: 0.0181
C: Acinetobacter (no irradiation), replication (Acinetobacter [3]): R (Bacteria can replicate after the treatment)
D Acinetobacter (irradiation), replication (Acinetobacter [3]): NR (No replication)
A: Pseudomonas aeruginosa (no irradiation), replication (Pseudomonas aeruginosa): R (Bacteria can replicate after the treatment)
B: Pseudomonas aeruginosa (irradiation), replication (Pseudomonas aeruginosa): NR (No replication)
E: Staphylococcus aureus MU500 (no irradiation), replication [4]: R (Bacteria can replicate after the treatment)
F: Staphylococcus aureus MU500 (irradiation), replication [4]: NR (No replication)
D Acinetobacter (irradiation), replication, second treatment (Acinetobacter [5]; [12]): NR (No replication)
C: Acinetobacter (no irradiation), replication, second treatment (Acinetobacter [5]; [13]): R (Bacteria can replicate after the treatment)
resistance to the treatment of the second generation resistant bacteria (Acinetobacter [5]; [14]): no resistance to the treatment
F: Staphylococcus aureus MU500 (irradiation), replication, second treatment [6, 12]: NR (No replication)
E: Staphylococcus aureus MU500 (no irradiation), replication, second treatment [6, 13]: R (Bacteria can replicate after the treatment)
resistance to the treatment of the second generation resistant bacteria [6, 14]: no resistance to the treatment

CCn1cc(C(=O)O)c(=O)c2cc(F)c(N3CCNCC3)cc21 [Norfloxacin]
difference in absorption values (595-600 nm) between t4 and t3 [1, 9]: −0.1198
difference in absorption values (595-600 nm) between t4 and t3 ([1]; D: control no pulse): −0.1119
difference in absorption values (595-600 nm) between t4 and t3 [1, 10]: −0.0589
difference in absorption values (595-600 nm) between t4 and t3 [2, 11]: −0.0491
difference in absorption values (595-600 nm) between t4 and t3 ([2]; D: control no pulse): 0.0039
difference in absorption values (595-600 nm) between t4 and t3 [2, 10]: −0.1879
C: Acinetobacter (no irradiation), replication (Acinetobacter [3]): R (Bacteria can replicate after the treatment)
D Acinetobacter (irradiation), replication (Acinetobacter [3]): NR (No replication)
A: Pseudomonas aeruginosa (no irradiation), replication (Pseudomonas aeruginosa): R (Bacteria can replicate after the treatment)
B: Pseudomonas aeruginosa (irradiation), replication (Pseudomonas aeruginosa): NR (No replication)
E: Staphylococcus aureus MU500 (no irradiation), replication [4]: R (Bacteria can replicate after the treatment)
F: Staphylococcus aureus MU500 (irradiation), replication [4]: PR (Bacteria can replicate partially)

Gentamicin
MIC ([7]; overnight incubation): >16 µg/mL

Penicillin
MIC ([7]; overnight incubation): >8 µg/mL

Teicopanin
MIC ([7]; overnight incubation): 8 µg/mL

Cc1onc(-c2ccccc2)c1C(=O)N[C@@H]1C(=O)N2[C@@H]1SC(C)(C)[C@@H]2C(=O)O [Oxacillin]
MIC ([7]; Staphylococcus aureus, MRSA, overnight incubation, read-out: MIC): > 32 µg/mL

CC1COc2c(N3CCN(C)CC3)c(F)cc3c(=O)c(C(=O)O)cn1c23 (stereo not shown) [Ofloxacin]
CFU first run [8, 15]: 505 CFU
CFU second run [8, 15]: 351 CFU
Killed first run [8, 15]: 12%
Killed second run [8, 15]: 14%
CFU first run [8, 16]: 9 CFU
CFU second run [8, 16]: 9 CFU
Killed first run [8, 16]: 98%
Killed second run [8, 16]: 98%
CFU first run [8, 17]: 574 CFU
CFU second run [8, 17]: 391 CFU
Killed first run [8, 17]: 0%
Killed second run [8, 17]: 4%
CFU first run [8, 18]: 144 CFU
CFU second run [8, 18]: 98 CFU
Killed first run [8, 18]: 75%
Killed second run [8, 18]: 76%
CFU first run [8, 19]: 490 CFU
CFU second run [8, 19]: 350 CFU
Killed first run [8, 19]: 15%
Killed second run [8, 19]: 14%
CFU first run [8, 20]: 7 CFU
CFU second run [8, 20]: 15 CFU
Killed first run [8, 20]: 99%
Killed second run [8, 20]: 96%
CFU first run [8, 21]: 570 CFU
CFU second run [8, 21]: 363 CFU
Killed first run [8, 21]: 1%
Killed second run [8, 21]: 11%
CFU first run [8, 22]: 171 CFU
CFU second run [8, 22]: 193 CFU
Killed first run [8, 22]: 70%
Killed second run [8, 22]: 53%
C: Acinetobacter (no irradiation), replication (Acinetobacter [3]): R (Bacteria can replicate after the treatment)
D Acinetobacter (irradiation), replication (Acinetobacter [3]): NR (No replication)
A: Pseudomonas aeruginosa (no irradiation), replication (Pseudomonas aeruginosa): R (Bacteria can replicate after the treatment)
B: Pseudomonas aeruginosa (irradiation), replication (Pseudomonas aeruginosa): NR (No replication)
E: Staphylococcus aureus MU500 (no irradiation), replication [4]: R (Bacteria can replicate after the treatment)
F: Staphylococcus aureus MU500 (irradiation), replication [4]: PR (Bacteria can replicate partially)

CN[C@H](CC(C)C)C(=O)N[C@H]1C(=O)N[C@@H](CC(N)=O)C(=O)N[C@H]2C(=O)N[C@H]3C(=O)N[C@H](C(=O)N[C@H](C(=O)O)c4cc(O)cc(O)c4-c4cc3ccc4O)[C@H](O)c3ccc(c(Cl)c3)Oc3cc2cc(c3O[C@@H]2O[C@H](CO)[C@@H](O)[C@H](O)[C@H]2O[C@H]2C[C@](C)(N)[C@H](O)[C@H](C)O2)Oc2ccc(cc2Cl)[C@H]1O [Vancomycin]
MIC ([7]; Staphylococcus aureus, MRSA): 8 µg/mL (≈ 5.52 µM)
